“Also recorded” adds a separate entry of the source.
How the values were obtained:
db/db mice [1] = assay: Study 1: plasma N-glycan profile (GLYCANMAP, MALDI-TOF MS) and HbA1c in rosiglitazone-treated db/db mice; format: in vivo; conditions: 10 mpk oral once daily, vs vehicle
Source text: An initial study (Study 1) was an analysis of 160 plasma samples collected from rosiglitazone-treated mice following oral administration of 10 mpk once daily for up to 39 days. Rosigilitazone is an athiazolidinedione class of antidiabetic drug marketed by Glaxo under the trade name AVANDIA. […] These changes, on an individual N-glycan basis, reached high statistical significance (P<0.001) as early as seven days, a full two weeks prior to changes in HbA1c (day seven vs. day 21, respectively). […]
The objective of Study 1 was to evaluate N-linked glycosylation changes in plasma proteins that precede and predict the decrease in glycated hemoglobin (HbA1c) associated with successful resolution of diabetes. […] A baseline (Day 0) sample was not analyzed in the initial rosiglitazone study, but was included in the subsequent studies described in Examples 2 and 3.
GLYCANMAP Assay (a registered trademark of Ezose Sciences, Pine Brook, N.J.): A 10 μL aliquot of each plasma sample was spiked with internal standard (700 pmol) to aid in quantitation. The spiked aliquots were analyzed for N-linked glycans using GLYCANMAP methodology, which is based on the methods previously reported by Nishimura, Furukawa and Miura (Nishimura et al., Angew Chem. Int. Ed. Engl., 44: 91-96 (2004); Furukawa et al., Anal. Chem., 80: 1094-1101 (2008); Miura et al., Chem.-A Eur. J, 13: 4797-4804 (2007)). […]

db/db mice [2] = assay: Study 3: plasma N-glycan profile in insulin detemir-treated db/db mice; format: in vivo; conditions: for Direction of Change, High Mannose glycan 520000 (Man5GlcNAc2) / Direction of Change, High Mannose glycan 620000 (Man6GlcNAc2) / Direction of Change, High Mannose glycan 720000 (Man7GlcNAc2) / Direction of Change, High Mannose glycan 820000 (Man8GlcNAc2) / Direction of Change, Hybrid glycan 430010 / Direction of Change, Hybrid glycan 530010 / Direction of Change, Hybrid glycan 630010: subcutaneous, two doses of 10 U/kg per day, days 7, 14, 21, vs vehicle
Method: In Study 3, changes in the N-linked glycosylation profile of total serum proteins obtained from diabetic mice were further characterized using a different drug-treatment to determine the drug specificity of the rosiglitazone-induced changes. In an animal study, insulin detemir was administered subcutaneously in two doses of 10 U/kg per day. Samples were collected from insulin detemir and vehicle-treated db/db mice at four time points (0, 7, 14, and 21 days). (Insulin detemir is a long-acting insulin marketed by Novo Nordisk under the trade name LEVEMIR.). […] The high mannose N-glycans that were decreased in the insulin-treated db/db mice were Man8GlcNAc2 (820000), Man7GlcNAc2 (720000), Man6GlcNAc2 (620000), and Man5GlcNAc2 (520000). The hybrid N-glycans that were decreased in the insulin-treated db/db mice were SiaGalGlcNAcMan3GlcNAc2 (430010), SiaGalGlcNAcMan4GlcNAc2 (530010), and SiaGalGlcNAcMan5GlcNAc2 (630010), wherein Sia is Neu5Ac or Neu5Gc.
The objective of this study was to evaluate the performance of candidate biomarkers discovered using rosiglitazone in mice treated with a diabetes drug with a different mechanism of action. The 16 candidate markers that were identified in Example 1 were evaluated in db/db mice treated with insulin detemir and vehicle.
In this Example, plasma samples were analyzed from ten db/db mice at baseline (0 days), and 20 db/db mice (ten vehicle and ten insulin detemir) at 7, 14, and 21 days. Sample preparation and analysis followed the protocol described in Example 1.
Data Analysis: For this study, the analysis was extended to evaluate changes in all detected N-glycans in order to reveal any novel N-glycan changes that might be specific to insulin detemir. The extended analysis was not performed in Study 2, which included only baseline and Day 7 time points since N-glycan changes at Day 7 could not be evaluated to determine if they are sustained over time. Drug-treated and vehicle-treated db/db mice were compared across each time point using the Student's t-test. To evaluate time-dependent changes, each time point within a treatment group was compared to its corresponding Day 0 group. N-glycans which yielded p-values <0.05 in this analysis were considered significant.
The concentrations of individual N-glycans in insulin detemir- and vehicle-treated db/db mice were compared at each time point using the Student's t-test. […] Time-dependence was also evaluated for each of the candidate markers by comparing each time point to baseline.

[3] = serum samples, vs non-treated controls

Molecule	Time at which highly significant (p<0.001) change in HbA1c was achieved (db/db mice [1]) [days]	Change in O-acetylated N-glycans (db/db mice [2]; [3])	Change in fucosylated N-glycans (db/db mice [2]; [3])	Change in tetraantennary N-glycans (db/db mice [2]; [3])	Direction of Change, High Mannose glycan 520000 (Man5GlcNAc2) (db/db mice [2])	Direction of Change, High Mannose glycan 620000 (Man6GlcNAc2) (db/db mice [2])	Direction of Change, High Mannose glycan 720000 (Man7GlcNAc2) (db/db mice [2])	Direction of Change, High Mannose glycan 820000 (Man8GlcNAc2) (db/db mice [2])	Direction of Change, Hybrid glycan 430010 (db/db mice [2])	Direction of Change, Hybrid glycan 530010 (db/db mice [2])	Direction of Change, Hybrid glycan 630010 (db/db mice [2])	Direction of Change, High Mannose glycan 520000 (Man5GlcNAc2) (db/db mice [2]; listed as Insulin Detemir)	Direction of Change, High Mannose glycan 620000 (Man6GlcNAc2) (db/db mice [2]; listed as Insulin Detemir)	Direction of Change, High Mannose glycan 720000 (Man7GlcNAc2) (db/db mice [2]; listed as Insulin Detemir)	Direction of Change, High Mannose glycan 820000 (Man8GlcNAc2) (db/db mice [2]; listed as Insulin Detemir)	Direction of Change, Hybrid glycan 430010 (db/db mice [2]; listed as Insulin Detemir)	Direction of Change, Hybrid glycan 530010 (db/db mice [2]; listed as Insulin Detemir)	Direction of Change, Hybrid glycan 630010 (db/db mice [2]; listed as Insulin Detemir)
CN(CCOc1ccc(CC2SC(=O)NC2=O)cc1)c1ccccn1 (stereo not drawn) [rosiglitazone]	21																	
insulin detemir		No change	No change	No change	decreased; also recorded: lower	decreased; also recorded: lower	decreased; also recorded: lower	decreased; also recorded: lower	decreases; also recorded: lower	decreases; also recorded: lower	decreases; also recorded: lower	Decreased	Decreased	Decreased	Decreased	Decreased	Decreased	Decreased

From patent US20150083906A1, “BIOMARKERS FOR MONITORING INTERVENTION THERAPIES FOR DIABETES” (MERCK SHARP & DOHME CORP., priority 2012, published 2015)
